Results: patent publication US5981517A, “Androstene derivatives” (priority 1997, dated 1999)
Where “and” joins values, the source holds several entries; their conditions need not be identical. Equal values may be shown once. Read-outs that look alike come from different tables or passages of the source.

What was measured:
rats = conditions: oral; cited from earlier work
[1] = biological target: T1, rat lung glucocorticoid receptor (Rattus norvegicus, UniProt P06536); conditions: previously found, cited from earlier work
T1 construct: Immediately after resection of the lungs, the tissue was frozen in ice; The cytosol was prepared; from tissue; host or cells: lung cytosol of adrenalectomized male Sprague-Dawley rats
T1 sequence (P06536 1-795): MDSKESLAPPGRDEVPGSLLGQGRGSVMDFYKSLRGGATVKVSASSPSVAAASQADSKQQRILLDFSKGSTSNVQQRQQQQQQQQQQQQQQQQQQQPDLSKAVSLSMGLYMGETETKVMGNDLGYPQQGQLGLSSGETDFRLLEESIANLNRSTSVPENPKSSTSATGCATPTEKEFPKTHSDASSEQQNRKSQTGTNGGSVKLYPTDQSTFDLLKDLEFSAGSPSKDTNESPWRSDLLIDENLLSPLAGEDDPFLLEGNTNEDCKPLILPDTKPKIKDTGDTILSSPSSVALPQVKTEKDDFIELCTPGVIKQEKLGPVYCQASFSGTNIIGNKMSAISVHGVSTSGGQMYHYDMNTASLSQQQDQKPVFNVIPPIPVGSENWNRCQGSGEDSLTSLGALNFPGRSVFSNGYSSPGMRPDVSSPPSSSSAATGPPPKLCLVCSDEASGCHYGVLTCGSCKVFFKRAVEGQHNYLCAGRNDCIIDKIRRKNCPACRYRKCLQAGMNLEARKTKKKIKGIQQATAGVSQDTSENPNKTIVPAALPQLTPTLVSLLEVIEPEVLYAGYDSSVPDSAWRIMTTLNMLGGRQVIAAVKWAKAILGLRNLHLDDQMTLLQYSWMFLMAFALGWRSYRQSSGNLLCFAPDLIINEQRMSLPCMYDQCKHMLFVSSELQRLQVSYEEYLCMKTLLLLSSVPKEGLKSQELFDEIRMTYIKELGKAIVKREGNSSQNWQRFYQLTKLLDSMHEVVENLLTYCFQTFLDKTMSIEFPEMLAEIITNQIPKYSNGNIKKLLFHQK

[2] = test system: forearm of a human volunteer; assay: Human vasoconstriction test; format: in vivo; set-up: key: 0 = normal skin, 4 = very intense pallor; conditions: 10 mM
Method: Test compounds (10 mM) were dissolved in ethanol/propylene glycol (9/1) solution, and 50 μL of the mixtures were applied to circular patches, 8 mm in diameter. After ethanol evaporation, the patches were applied to the forearm of a human volunteer, and covered with a water impervious film for 3 hours. The intensity of vasoconstriction was judged 1, 8, 17 and 24 hours after the patches were removed.
The grading scale for the vasoconstriction activity was as follows: 0, normal skin; 1, slight pallor of indistinct outline; 2, pallor with at least two corners outlined; 3, even pallor with a clear outline of the application sites; 4, very intense pallor.

[3] = test system: forearms of a human volunteer; assay: Further human vasoconstriction testing, Method 1; format: in vivo
Method: The mixtures, in 50 μL amounts, were applied to circular patches (8 mm diameter). After evaporation of ethanol, the patches were applied to the forearms of a human volunteer, and covered with a water impervious film for 3 hr. The intensity of vasoconstriction (scale 0-4) was judged at various time intervals after removal of the patches. The grading scale was as follows: 0, normal skin; 1, slight pallor of indistinct outline; 2, pallor with at least two corners outlined; 3, even pallor with a clear outline of the application sites; 4, very intense pallor. The skin tests (2-4 tests on each compound) were performed on the same person.

Compound: CC(=O)O [Acetic acid]
- LD50 (rats): 3530 mg/kg

Compound: CCOC(=O)O[C@]1(C(=O)OCCl)CC[C@H]2[C@@H]3CCC4=CC(=O)C=C[C@]4(C)[C@H]3[C@@H](O)C[C@@]21C [Loteprednol etabonate, chloromethyl 17α-ethoxycarbonyloxy-11β-hydroxyandrosta-1,4-dien-3-one-17β-carboxylate, reference compound]
- RBA ([1]; with Δ1-cortienic acid): 420
- RBA ([1]; without Δ1-cortienic acid): 152
- Vasoconstriction activity ([2]; 1 hour after patch removal): 2
- Vasoconstriction activity ([2]; 8 hours after patch removal): 3 and 2
- Vasoconstriction activity ([2]; 17 hours after patch removal): 2
- Vasoconstriction activity ([2]; 24 hours after patch removal): 2 and 1
- Vasoconstriction activity ([3]; 3 Hours, 0.01 mM): 0
- Vasoconstriction activity ([3]; 3 Hours, 0.05 mM): 0
- Vasoconstriction activity ([3]; 3 Hours, 0.1 mM): 1
- Vasoconstriction activity ([3]; 3 Hours, 0.5 mM): 2
- Vasoconstriction activity ([3]; 3 Hours, 1 mM): 3
- Vasoconstriction activity ([3]; 3 Hours, 5 mM): 3
- Vasoconstriction activity ([3]; 3 Hours, 10 mM): 4
- Vasoconstriction activity ([3]; 20 Hours, 0.01 mM): 0
- Vasoconstriction activity ([3]; 20 Hours, 0.05 mM): 0
- Vasoconstriction activity ([3]; 20 Hours, 0.1 mM): 0
- Vasoconstriction activity ([3]; 20 Hours, 0.5 mM): 0
- Vasoconstriction activity ([3]; 20 Hours, 1 mM): 0
- Vasoconstriction activity ([3]; 20 Hours, 5 mM): 1
- Vasoconstriction activity ([3]; 20 Hours, 10 mM): 2

Compound: CCC(=O)O [propionic acid]
- LD50 (rats): 4290 mg/kg
